Results: patent US12065471B2, “B*44 restricted peptides for use in immunotherapy against cancers and related methods” (Immatics Biotechnologies GmbH, priority 2018, dated 2024)

Tests used:
CD8+ T cells = experiment: In vitro immunogenicity: T-cell priming with aAPCs loaded with peptide/MHC and anti-CD28, pMHC multimer readout; format: cell-based, human; details: Table 10b, pMHC multimer readout after T-cell priming
Description: After three cycles of stimulation, the detection of peptide-reactive cells was performed by 2D multimer staining with B*44/SEQ ID NO: 469 (FIG. 3A), B*44/SEQ ID NO: 512 (FIG. 3B), B*44/SEQ ID NO: 9 (FIG. 3C), B*44/SEQ ID NO: 11 (D), B*44/SEQ ID NO: 17 (E), B*44/SEQ ID NO: 35 (F) or B*44/SEQ ID NO: 41 (FIG. 3G). Right panels (FIGS. 3A through 3G) show control staining of cells stimulated with irrelevant B*44/peptide complexes. Viable singlet cells were gated for CD8+ lymphocytes. Boolean gates helped excluding false-positive events detected with multimers specific for different peptides.
In order to obtain information regarding the immunogenicity of the TUMAPs of the present invention, the inventors performed investigations using an in vitro T-cell priming assay based on repeated stimulations of CD8+ T cells with artificial antigen presenting cells (aAPCs) loaded with peptide/MHC complexes and anti-CD28 antibody.
In order to perform in vitro stimulations by artificial antigen presenting cells loaded with peptide-MHC complex (pMHC) and anti-CD28 antibody, the inventors first isolated CD8+ T cells from fresh HLA-A*02 leukapheresis products via positive selection using CD8 microbeads (Miltenyi Biotec, Bergisch-Gladbach, Germany) of healthy donors obtained from the University clinics Mannheim, Germany, after informed consent.
PBMCs and isolated CD8+ lymphocytes were incubated in T-cell medium (TCM) until use consisting of RPMI-Glutamax (Invitrogen, Karlsruhe, Germany) supplemented with 10% heat inactivated human AB serum (PAN-Biotech, Aidenbach, Germany), 100 U/ml Penicillin/100 μg/ml Streptomycin (Cambrex, Cologne, Germany), 1 mM sodium pyruvate (CC Pro, Oberdorda, Germany), 20 μg/ml Gentamycin (Cambrex). 2.5 ng/ml IL-7 (PromoCell, Heidelberg, Germany) and 10 U/ml IL-2 (Novartis Pharma, Nümberg, Germany) were also added to the TCM at this step.
Generation of pMHC/anti-CD28 coated beads, T-cell stimulations and readout was performed in a highly defined in vitro system using four different pMHC molecules per stimulation condition and 8 different pMHC molecules per readout condition.
The purified co-stimulatory mouse IgG2a anti human CD28 Ab 9.3 (Jung et al., 1987) was chemically biotinylated using Sulfo-N-hydroxysuccinimidobiotin as recommended by the manufacturer (Perbio, Bonn, Germany). Beads used were 5.6 μm diameter streptavidin coated polystyrene particles (Bangs Laboratories, Illinois, USA).
800.000 beads/200 μl were coated in 96-well plates in the presence of 4×12.5 ng different biotin-pMHC, washed and 600 ng biotin anti-CD28 were added subsequently in a volume of 200 μl. Stimulations were initiated in 96-well plates by co-incubating 1×10^6 CD8+ T cells with 2×10^5 washed coated beads in 200 μl TCM supplemented with 5 ng/ml IL-12 (PromoCell) for 3 days at 37° C. Half of the medium was then exchanged by fresh TCM supplemented with 80 U/ml IL-2 and incubating was continued for 4 days at 37° C. This stimulation cycle was performed for a total of three times. For the pMHC multimer readout using 8 different pMHC molecules per condition, a two-dimensional combinatorial coding approach was used as previously described (Andersen et al., 2012) with minor modifications encompassing coupling to 5 different fluorochromes. Finally, multimeric analyses were performed by staining the cells with Live/dead near IR dye (Invitrogen, Karlsruhe, Germany), CD8-FITC antibody clone SK1 (BD, Heidelberg, Germany) and fluorescent pMHC multimers. For analysis, a BD LSRII SORP cytometer equipped with appropriate lasers and filters was used. Peptide specific cells were calculated as percentage of total CD8+ cells. Evaluation of multimeric analysis was done using the FlowJo software (Tree Star, Oregon, USA). In vitro priming of specific multimer+CD8+ lymphocytes was detected by comparing to negative control stimulations.

HLA-B*44:05 = HLA-B*44:05 (Homo sapiens, UniProt P01889, A223V/A65T/A93T/A95T/D201E/D98Y/E176V/E187L/E204Q/E69K/G107R/H137Y/K202T/L105A/L119I/N104T/N87E/Q56L/Q94N/R106L/R155S/R180D/S101N/S121R/S35A/S48T/T118I/V36M/W191S/Y91S); experiment: MHC binding assay (UV-ligand exchange, β2m ELISA, peptide exchange yield); details: binding to HLA-B*44:05
Outline: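 Peptide–HLA complexes formed by UV-ligand exchange of a UV-cleavable peptide for the test peptide. Exchange yield measured by β2m ELISA: complexes diluted 100-fold and captured on streptavidin, detected with HRP anti-β2m and TMB, read at 450 nm. Quantified against refolded HLA-A*02:01/MLA-001 monomer standards, 15-500 ng/ml.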

Substance | Wells positive [%] (CD8+ T cells) | Peptide exchange (MHC class I binding score, peptide exchange yield) (HLA-B*44:05)
33 (IEYENQKRL; listed as Homo sapiens) [compound 33] | ++ (20%-49% = ++) | ++ (>20% = ++)
45 (EEINELNRMI; listed as Homo sapiens) [compound 45] | +++ (50%-69% = +++) | +++ (>50 = +++)
78 (TEFSNHINL; listed as Homo sapiens) [compound 78] | ++ (20%-49% = ++) | +++ (>50 = +++)
35 (RELVHMINW; listed as Homo sapiens) [compound 35] | ++ (20%-49% = ++) | ++++ (>75% = ++++)
54 (QEISAHRTEF; listed as Homo sapiens) [compound 54] | + (<20% = +) | +++ (>50 = +++)
51 (VEMTGKHQL; listed as Homo sapiens) [compound 51] | ++ (20%-49% = ++) | ++ (>20% = ++)
9 (MEVDPIGHLYIF; listed as Homo sapiens) [compound 9] | +++ (50%-69% = +++) | ++++ (>75% = ++++)
28 (QEFPAHSL; listed as Homo sapiens) [compound 28] | + (<20% = +) | +++ (>50 = +++)
73 (GEGTLRLSW; listed as Homo sapiens) [compound 73] | ++ (20%-49% = ++) | ++++ (>75% = ++++)
18 (QEAPRPASSL; listed as Homo sapiens) [compound 18] | + (<20% = +) | +++ (>50 = +++)
83 (TEGGTQKTF; listed as Homo sapiens) [compound 83] | ++++ (>=70% = ++++) | +++ (>50 = +++)
4 (AEALGAAKKL; listed as Homo sapiens) [compound 4] | + (<20% = +) | ++ (>20% = ++)
53 (KEDNPSGHTY; listed as Homo sapiens) [compound 53] | ++ (20%-49% = ++) | +++ (>50 = +++)
79 (TEAQRLDCW; listed as Homo sapiens) [compound 79] | + (<20% = +) | +++ (>50 = +++)
71 (AEVGDIIKV; listed as Homo sapiens) [compound 71] | ++ (20%-49% = ++) | ++ (>20% = ++)
69 (DENIQKFIW; listed as Homo sapiens) [compound 69] | ++ (20%-49% = ++) | +++ (>50 = +++)
36 (LEQASRIWSW; listed as Homo sapiens) [compound 36] | ++++ (>=70% = ++++) | ++++ (>75% = ++++)
59 (AEIEADRSYQ; listed as Homo sapiens) [compound 59] | + (<20% = +) | ++ (>20% = ++)
41 (EENTGKTYF; listed as Homo sapiens) [compound 41] | ++ (20%-49% = ++) | +++ (>50 = +++)

Substance | Wells positive [%] (CD8+ T cells) | Peptide exchange (MHC class I binding score, peptide exchange yield) (HLA-B*44:05)
66 (AEVTLNNTI; listed as Homo sapiens) [compound 66] | + (<20% = +) | +++ (>50 = +++)
60 (EEAVRSVAF; listed as Homo sapiens) [compound 60] | ++ (20%-49% = ++) | +++ (>50 = +++)
39 (AEAMGKFKQCF; listed as Homo sapiens) [compound 39] | + (<20% = +) | +++ (>50 = +++)
47 (TEVHSSPAQRW; listed as Homo sapiens) [compound 47] | +++ (50%-69% = +++) | +++ (>50 = +++)
15 (MEAELVRRI; listed as Homo sapiens) [compound 15] | + (<20% = +) | +++ (>50 = +++)
42 (SEENTGKTYF; listed as Homo sapiens) [compound 42] | ++ (20%-49% = ++) | +++ (>50 = +++)
30 (EEFCFSVRF; listed as Homo sapiens) [compound 30] | + (<20% = +) | +++ (>50 = +++)
20 (LEALLSDLF; listed as Homo sapiens) [compound 20] | ++ (20%-49% = ++) | +++ (>50 = +++)
61 (AEYSVHKI; listed as Homo sapiens) [compound 61] | + (<20% = +) | +++ (>50 = +++)
70 (AEAEEAMKRL; listed as Homo sapiens) [compound 70] | ++ (20%-49% = ++) | +++ (>50 = +++)
32 (REYEYDLKW; listed as Homo sapiens) [compound 32] | + (<20% = +) | ++++ (>75% = ++++)
24 (EELALRIGL; listed as Homo sapiens) [compound 24] | ++++ (>=70% = ++++) | +++ (>50 = +++)
22 (TEEITEGVW; listed as Homo sapiens) [compound 22] | + (<20% = +) | ++++ (>75% = ++++)
16 (NESDRLVYF; listed as Homo sapiens) [compound 16] | ++ (20%-49% = ++) | +++ (>50 = +++)
62 (AEYSVHKITSTF; listed as Homo sapiens) [compound 62] | + (<20% = +) | ++++ (>75% = ++++)
422 (EEAQWVRKYF; listed as Homo sapiens) [compound 422] | ++++ (>=70% = ++++) | +++ (>50 = +++)
31 (MESAKETRY; listed as Homo sapiens) [compound 31] | + (<20% = +) | +++ (>50 = +++)
421 (TEDYSKQAL; listed as Homo sapiens) [compound 421] | + (<20% = +) | +++ (>50 = +++)
6 (AELVGPVIPQDW; listed as Homo sapiens) [compound 6] | ++ (20%-49% = ++) | +++ (>50 = +++)
